Reference: patent publication US20080199527A1, “Enteric Coated Azithromycin Multiparticulates” (Pfizer Inc., priority 2004, published 2008)

Test: Reactivity of enteric coating materials with azithromycin: ester formation in 50/50 mixtures, LC/MS
Format: physicochemical
Settings: 50/50 (w/w) mixture of azithromycin and material, 50° C. and 20% RH
Description: The reactivity of the materials useful for forming enteric coatings listed in Table 1 with azithromycin was determined as follows. […] (CAT), and triacetin, were prepared by adding equal weights of azithromycin and the material to a mortar and mixing with a spatula. […] Azithromycin esters were identified in each of the mixtures by LC/MS detection. […] The sample solutions were then filtered with a 0.45 μm nylon syringe filter. The sample solutions were then analyzed by HPLC using a Hypersil BDS C18 4.6 mm×250 mm (5 μm) HPLC column on a Hewlett Packard HP1100 liquid chromatograph. The mobile phase employed for sample elution was a gradient of isopropyl alcohol and 25 mM ammonium acetate buffer (pH approximately 7) as follows: initial conditions of 50/50 (v/v) isopropyl alcohol/ammonium acetate; the isopropyl alcohol percentage was then increased to 100% over 30 minutes and held at 100% for an additional 15 minutes. The flow rate was 0.80 mL/min. The method used a 75 μL injection volume and a 43° C. column temperature. A Finnigan LCQ Classic mass spectrometer was used for detection. […] Azithromycin ester values were calculated from the MS peak areas based on an external azithromycin standard. […] The results of this analysis are shown below as are the measured rates of ester formation (Re) at 50° C.

Re at 50° C. (rate of ester formation): 6.5 × 10^−2 wt %/day | Concentration of Azithromycin Esters (storage time 10 days): 0.65 wt %
Structure (SMILES): CC(=O)OCC(COC(C)=O)OC(C)=O [Triacetin, triacetin]
